Where “and” joins values, the source holds several entries; their conditions need not be identical. Identical values can stand only once. Calls of active or inactive are those of the source. No cut-off for these calls is given here.
Experiments:
[1] = Half life in Wistar rat at 15 mg/kg, ip measured upto 24 hrs by HPLC analysis; format: ADME, organism-based; settings: in vivo
[2] = Toxicity in Balb/c mouse implanted with mouse 4T1 Luc cells assessed as liver tissue damage at 15 mg/kg by H and E staining; format: organism-based; settings: in vivo
[3] = tested on: 4T1; assay: Induction of apoptosis in mouse 4T1 Luc cells implanted in Balb/c mouse reduction in CD44 expression at 15 to 25 mg/kg incubated for 24 hrs by Western blot analysis; format: functional, organism-based; settings: dose 15-25 mg/kg
[4] = tested on: 4T1; assay: Induction of apoptosis in mouse 4T1 Luc cells implanted in Balb/c mouse assessed as increase in ROS generation at 25 mg/kg by fluorescent microscopy analysis; format: functional, organism-based
[5] = tested on: Mus musculus; assay: Antitumor activity against mouse 4T1 Luc cells implanted in Balb/c mouse assessed as increase in animal survival at 15 mg/kg measured after 21 days; format: functional, organism-based; settings: time 21.0 day
[6] = MRT in Wistar rat at 15 mg/kg, ip measured upto 24 hrs by HPLC analysis; format: ADME, organism-based; settings: in vivo
[7] = Toxicity in Balb/c mouse implanted with mouse 4T1-luc cells assessed as mortality at 15 to 25 mg/kg, ip; format: organism-based; settings: in vivo, dose 15-25 mg/kg
[8] = AUCt in Wistar rat at 25 mg/kg, iv measured upto 24 hrs by HPLC analysis; format: ADME, organism-based; parameters: dose 25 mg/kg, time < 24 hrs, route iv; settings: in vivo
[9] = AUCt in Wistar rat at 15 mg/kg, iv measured upto 24 hrs by HPLC analysis; format: ADME, organism-based; parameters: time < 24 hrs, dose 15 mg/kg, route iv; settings: in vivo
[10] = Cmax in Wistar rat at 15 mg/kg, ip measured upto 24 hrs by HPLC analysis; format: ADME, organism-based; parameters: dose 15 mg/kg, time < 24 hrs, route ip; settings: in vivo
[11] = Cmax in Wistar rat at 15 mg/kg, iv measured upto 24 hrs by HPLC analysis; format: ADME, organism-based; parameters: time < 24 hrs, dose 15 mg/kg, route iv; settings: in vivo
[12] = tested on: 4T1; assay: Antitumor activity against mouse 4T1 Luc cells implanted in Balb/c mouse assessed as decrease in Ki-67 in tumor tissue at 15 to 25 mg/kg by immunohistochemical analysis; format: functional, organism-based; settings: dose 15-25 mg/kg
[13] = tested on: 4T1; assay: Induction of apoptosis in mouse 4T1 Luc cells implanted in Balb/c mouse assessed as increase in ROS generation at 15 mg/kg by fluorescent microscopy analysis; format: functional, organism-based
[14] = Toxicity in Balb/c mouse implanted with mouse 4T1 Luc cells assessed as spleen tissue damage at 15 mg/kg by H and E staining; format: organism-based; settings: in vivo
[15] = AUC (0 to infinity) in Wistar rat at 15 mg/kg, ip measured upto 24 hrs by HPLC analysis; format: ADME, organism-based; parameters: time < 24 hrs, dose 15 mg/kg, route ip; settings: in vivo
[16] = Toxicity in Balb/c mouse implanted with mouse 4T1 Luc cells assessed as kidney tissue damage at 15 mg/kg by H and E staining; format: organism-based; settings: in vivo
[17] = Tmax in Wistar rat at 15 mg/kg, ip measured upto 24 hrs by HPLC analysis; format: ADME, organism-based; settings: in vivo
[18] = Half life in Wistar rat at 25 mg/kg, iv measured upto 24 hrs by HPLC analysis; format: ADME, organism-based; settings: in vivo
[19] = Toxicity in Balb/c mouse implanted with mouse 4T1 Luc cells assessed as heart tissue damage at 15 mg/kg by H and E staining; format: organism-based; settings: in vivo
[20] = MRT in Wistar rat at 15 mg/kg, iv measured upto 24 hrs by HPLC analysis; format: ADME, organism-based; settings: in vivo
[21] = tested on: 4T1; assay: Induction of apoptosis in mouse 4T1 Luc cells implanted in Balb/c mouse assessed as upregulation of caspase 3 level at 15 to 25 mg/kg incubated for 24 hrs by Western blot analysis; format: functional, organism-based; settings: dose 15-25 mg/kg
[22] = tested on: 4T1; assay: Antitumor activity against mouse 4T1-luc cells Balb/c mouse assessed as reduction in tumor volume at 25 mg/kg, ip measured once 3 days for 21 days (reference value: 49.16 to 1032.50 mm^3); format: functional; settings: time 3 day
[23] = MRT in Wistar rat at 25 mg/kg, iv measured upto 24 hrs by HPLC analysis; format: ADME, organism-based; settings: in vivo
[24] = tested on: 4T1; assay: Antitumor activity against mouse 4T1 Luc cells implanted in Balb/c mouse assessed as reduction in metastasis at 15 to 25 mg/kg measured after 21 days by Kaplan-Meier method; format: functional, organism-based; settings: dose 15-25 mg/kg, time 21.0 day
[25] = tested on: 4T1; assay: Induction of intracellular ROS generation in mouse 4T1 Luc cells implanted in Balb/c mouse assessed as increase fluorescence intensity at 15 mg/kg measured after 21 days by DCFH-DA probe based fluorescent microscopy analysis; format: functional, organism-based; settings: time 21.0 day
[26] = Cmax in Wistar rat at 25 mg/kg, iv measured upto 24 hrs by HPLC analysis; format: ADME, organism-based; parameters: dose 25 mg/kg, time < 24 hrs, route iv; settings: in vivo
[27] = Half life in Wistar rat at 15 mg/kg, iv measured upto 24 hrs by HPLC analysis; format: ADME, organism-based; settings: in vivo
[28] = Toxicity in Balb/c mouse implanted with mouse 4T1-luc cells assessed as weight loss at 15 mg/kg, ip; format: organism-based; settings: in vivo
[29] = tested on: 4T1; assay: Cytotoxicity against mouse 4T1 cells assessed as increase in chromosomal condensation at 1.92 uM measured after 48 hrs by acridine orange and DAPI staining based fluorescence microscope assay; format: functional, cell-based
[30] = Toxicity in Balb/c mouse implanted with mouse 4T1 Luc cells assessed as lung tissue damage at 15 mg/kg by H and E staining; format: organism-based; settings: in vivo
[31] = Apparent volume of distribution during terminal phase in Wistar rat at 15 mg/kg, ip measured upto 24 hrs by HPLC analysis; format: ADME, organism-based; settings: in vivo
[32] = AUC (0 to infinity) in Wistar rat at 25 mg/kg, iv measured upto 24 hrs by HPLC analysis; format: ADME, organism-based; parameters: time < 24 hrs, dose 25 mg/kg, route iv; settings: in vivo
[33] = tested on: 4T1; assay: Induction of apoptosis in mouse 4T1 Luc cells implanted in Balb/c mouse reduction in EGFR expression at 15 to 25 mg/kg incubated for 24 hrs by Western blot analysis; format: functional, organism-based; settings: dose 15-25 mg/kg
[34] = tested on: 4T1; assay: Induction of apoptosis in mouse 4T1 Luc cells implanted in Balb/c mouse downregulation of Bcl2 expression at 15 to 25 mg/kg incubated for 24 hrs by Western blot analysis; format: functional, organism-based; settings: dose 15-25 mg/kg
[35] = Apparent volume of distribution during terminal phase in Wistar rat at 25 mg/kg, ip measured upto 24 hrs by HPLC analysis; format: ADME, organism-based; settings: in vivo
[36] = Tmax in Wistar rat at 15 mg/kg, iv measured upto 24 hrs by HPLC analysis; format: ADME, organism-based; settings: in vivo
[37] = tested on: 4T1; assay: Induction of apoptosis in mouse 4T1 Luc cells implanted in Balb/c mouse assessed as upregulation of caspase 7 level at 15 to 25 mg/kg incubated for 24 hrs by Western blot analysis; format: functional, organism-based; settings: dose 15-25 mg/kg
[38] = Tmax in Wistar rat at 25 mg/kg, iv measured upto 24 hrs by HPLC analysis; format: ADME, organism-based; settings: in vivo

## CCCNNC(=O)c1ccc(Nc2ccccc2)cc1
[1]
  half-life: 3.41 h
[2]
  Activity: Non-Toxic
[3]
  Activity: Active
[4]
  Activity: Active
[5]
  Activity: Active
[6]
  MRT: 4.16 h
[7]
  Activity: Non-Toxic
[8]
  AUC(0-t) at 24 h: 200000 ng·h/mL and 742 µM·h
[9]
  AUC(0-t) at 24 h: 159000 ng·h/mL and 592 µM·h
[10]
  Cmax: 8340 ng/mL and 31 µM
[11]
  Cmax: 26700 ng/mL and 99.3 µM
[12]
  Activity: Active
[13]
  Activity: Active
[14]
  Activity: Non-Toxic
[15]
  AUC(0-inf): 29300 ng·h/mL and 109 µM·h
[16]
  Activity: Non-Toxic
[17]
  Tmax: 2 h
[18]
  half-life: 2.62 h
[19]
  Activity: Non-Toxic
[20]
  MRT: 5.69 h
[21]
  Activity: Active
[22]
  Activity: 51.83 mm3
[23]
  MRT: 5.13 h
[24]
  Activity: Active
[25]
  Activity: Active
[26]
  Cmax: 32100 ng/mL and 120 µM
[27]
  half-life: 2.19 h
[28]
  Activity: Non-Toxic
[29]
  Activity: Active
[30]
  Activity: Non-Toxic
[31]
  Vz/F: 2.16 (mg/kg)/(ug/ml) and 1.44 (mg/kg)/(uM)
[32]
  AUC(0-inf): 200000 ng·h/mL and 744 µM·h
[33]
  Activity: Active
[34]
  Activity: Active
[35]
  Vz/F: 3.27 (mg/kg)/(ug/ml) and 2.01 (mg/kg)/(uM)
[36]
  Tmax: 0.5 h
[37]
  Activity: Active
[38]
  Tmax: 0.5 h
